The source of these data is article PMC11209700, “In Silico Drug Repurposing Uncovered the Antiviral Potential of the Antiparasitic Drug Oxibendazole Against the Chikungunya Virus” (ACS Omega, 2024).

Structures are written as SMILES. Starred links: 1 amine or outer side, 2 acyl side, 3 side chain; linkers in the order of their positions; H or OH if unused. Positions of bridges follow the written chain, without caps; N, C: chain ends. Non-standard residues stand in square brackets, D forms with d. Residues, ends and D or L forms follow the SMILES beside them. *: point of attachment. hTyr(3S-OH,4S-OH,3'-OSO3H) = N[C@H](C(=O)O)[C@H](O)[C@@H](O)c1ccc(O)c(OS(=O)(=O)O)c1; Orn(4R-OH,5R-OH) = O=C([C@H](C[C@@H](O)[C@@H](O)N[*:3])N[*:1])[*:2]; Pro(3S-OH,4S-Me) = C[C@H]1CN[C@H](C(=O)O)[C@H]1O; X1 = CCCCCOc1ccc(-c2cc(-c3ccc(C(=O)*)cc3)no2)cc1; Gln(3R-OH) = NC(=O)C[C@@H](O)[C@H](N)C(=O)O; Hyp = O=C(O)[C@@H]1C[C@@H](O)CN1

Data set [1] has as its system CHIKV. Conditions: read-out: EC50 against CHIKV; cited from earlier work.
A further data set relates to CHIKV 181-25 strain. The data set can be described thus: Antiviral screening against CHIKV 181-25 replication in Vero cells (plaque assay). In kind it is cell-based, Chikungunya virus. Conditions: inhibition rate of CHIKV replication at 50 μM, % relative to control, 24 hpi; for inhibition at 50 µM: Chikungunya virus; for CHIKV 181-25 inhibition (%): 50 µM. The method, then: DMSO (0.5%) was used as vehicle control, while CQ (50 μM) was used as a positive control due to its in vitro antiviral activity against CHIKV.[57]
Finally, the overlay medium was removed, and cells were fixed and stained with 10% formaldehyde and 0.2% crystal violet. Plaques were counted, and virus titers were determined as PFU/mL. Inhibition rates were determined by comparing the number of PFU of infected and treated cells and infected and untreated cells (100% infectivity).

Data set [2] deals with CHIKV BRA/RJ/18. Kind of data set: Antiviral evaluation against CHIKV BRA/RJ/18 replication in Vero cells (plaque assay). It is filed as cell-based, Chikungunya virus. Particulars: for EC50 / inhibition at 50 µM: Chikungunya virus, Vero; for EC50: 24 h, read-out: CHIKV BRA/RJ/18 EC50; for inhibition at 50 µM: read-out: CHIKV BRA/RJ/18 inhibition (%); for CHIKV BRA/RJ/18 SI (selectivity index): ratio between CC50 and EC50 values; for CHIKV BRA/RJ/18 EC50: Vero cells, MOI 1, 24 h.

Data set [3] is described as follows: Cytotoxicity by MTT assay in Vero cells. Particulars: African green monkey.
For data set [4], the system named is CHIKV BRA/RJ/18. Kind of data set: Entry assay. Particulars: Chikungunya virus, read-out: inhibition rate in virus entry assay.
Data set [5] has as its system CHIKV BRA/RJ/18. Kind of data set: Time-of-drug addition assay. Particulars: Chikungunya virus. In kind it is cell-based.
The conditions of data set [6]: single oral dose of 400 mg; cited from earlier work.
The test system of the next data set is mice. Particulars: doses up to 10 g/kg; cited from earlier work.
Data set [7] concerns CHIKV BRA/RJ/18. The data set can be described thus: Virus release assay. Conditions: 50 μM, 6 hpi.
In the next data set the test system is human herpesvirus 8. Particulars: read-out: EC50 against human herpesvirus 8; cited from earlier work.
The subject of the next data set is Zika virus. Conditions: read-out: EC50 against Zika virus; cited from earlier work.
The test system of the next data set is rats. Conditions: doses up to 10 g/kg; cited from earlier work.
In data set [8] the test system is CHIKV BRA/RJ/18. Kind of data set: Virucidal assay. In kind it is cell-based, Chikungunya virus. Conditions: 50 μM, 2 × 10^5 PFU treated 2 h at 37 °C.
The subject of data set [9] is CHIKV BRA/RJ/18. The data set can be described thus: Attachment assay. Particulars: Chikungunya virus, read-out: inhibition rate in attachment assay.
Data set [10] relates to CHIKV. Conditions: cited from earlier work.

In the case of `CCCCCCCCCCC[C@@H](C[C@@H]1OC(=O)[C@H]1CCCCCC)OC(=O)[C@H](CC(C)C)NC=O` [orlistat], in the data set on CHIKV [1], the EC50 is 0.82 µM.
In turn, `CCN(CC)CCCC(C)Nc1ccnc2cc(Cl)ccc12` (stereo not drawn) [CQ, chloroquine] showed an inhibition at 50 µM in the data set with CHIKV 181-25 strain of 98.2 ± 0.2%. In the data set on CHIKV BRA/RJ/18 [2], the EC50 is 47.5 ± 10.2 µM, the inhibition at 50 µM was found to be 48.5 ± 11.7% and the “CHIKV BRA/RJ/18 SI (selectivity index)” value was determined as 9.9. For the same molecule, in data set [3], the midpoint of cytotoxicity, the CC50 at 72 h, lay at 469 ± 84.4 µM.
`COC(=O)Nc1nc2ccc(C(=O)c3ccccc3)cc2[nH]1` [MBZ, mebendazole]: in the data set on CHIKV BRA/RJ/18 [2], the EC50 was above 50 µM and the “CHIKV BRA/RJ/18 EC50” value was “none exhibited anti-CHIKV activity”. The CC50 (in general, the concentration that lowers cell viability or growth by half) at 72 h in data set [3] is above 500 µM.
Consider `CCCOc1ccc2nc(NC(=O)OC)[nH]c2c1` [OBZ, oxibendazole], for which the inhibition at 50 µM in the data set on CHIKV BRA/RJ/18 [4] is 33.8%; in the data set on CHIKV 181-25 strain it was 66.4 ± 2.5%; in the data set on CHIKV BRA/RJ/18 [5] (read-out: inhibition rate in time-of-addition assay, 50 μM, added after 4 hpi until 10 hpi) it was around 40%; in the data set with CHIKV BRA/RJ/18 [5] (read-out: inhibition rate in time-of-addition assay, 50 μM, added until 4 hpi), around 55%; in the data set with CHIKV BRA/RJ/18 [2], 61.8 ± 2.7%; in the data set with CHIKV BRA/RJ/18 [9] it was 13.1%. In [6], the “side effects in clinical trials” value is given as “low frequency of side effects”. Besides, the “lethality (LD50 not determinable)” value in the data set with mice and with rats was “no deaths were reported” each time. The “intracellular/extracellular ratio of virus titers” value in the data set on CHIKV BRA/RJ/18 [7] was found to be 3.78. For the same molecule, the EC50 with human herpesvirus 8 was 1.5 µM; in the data set on Zika virus it was 0.7 µM; in the data set with CHIKV BRA/RJ/18 [2], 11.4 ± 3.2 µM. In the data set on CHIKV BRA/RJ/18 [2], the “CHIKV BRA/RJ/18 SI (selectivity index)” value is on record as above 44.0. Further, in the data set on CHIKV BRA/RJ/18 [8], the virucidal effect entry was “no virucidal effects were observed”. In [3], this molecule displayed a CC50 at 72 h above 500 µM.
In the case of `CC(=O)Oc1ccccc1C(=O)Nc1ncc([N+](=O)[O-])s1` [nitazoxanide], in the data set with CHIKV [1], the EC50 is 2.96 µM.
On to `CC(C)OC(=O)[C@H](C)N[P@](=O)(OC[C@H]1O[C@@H](n2ccc(=O)[nH]c2=O)[C@](C)(F)[C@@H]1O)Oc1ccccc1` [sofosbuvir], for which, in the data set on CHIKV [1], the EC50 was 2.7 µM. The “effect on CHIKV infection in mice” value in the data set on CHIKV [10] is on record as “ameliorate CHIKV infection in mice”.
The molecule `CCCCCOC(=O)Nc1nc(=O)n([C@@H]2O[C@H](C)[C@@H](O)[C@H]2O)cc1F` [CPB, capecitabine] came in with an inhibition at 50 µM in the data set on CHIKV 181-25 strain of 0%. Besides, the “CHIKV 181-25 inhibition (%)” value in the data set on CHIKV 181-25 strain is “did not present antiviral activity”; with CHIKV 181-25 strain (listed as CPD) it was “did not inhibit CHIKV replication”.
Regarding `COC(=O)Nc1nc2ccc(Sc3ccccc3)cc2[nH]1` [FBZ, fenbendazole], in the data set with CHIKV BRA/RJ/18 [2], the EC50 is above 50 µM and the “CHIKV BRA/RJ/18 EC50” value was “none exhibited anti-CHIKV activity”. The CC50 at 72 h in [3] is above 500 µM.
On to `Cc1ccc(C(=O)Nc2ccc(S(=O)(=O)O)c3cc(S(=O)(=O)O)cc(S(=O)(=O)O)c23)cc1NC(=O)c1cccc(NC(=O)Nc2cccc(C(=O)Nc3cc(C(=O)Nc4ccc(S(=O)(=O)O)c5cc(S(=O)(=O)O)cc(S(=O)(=O)O)c45)ccc3C)c2)c1` [suramin], for which the EC50 with CHIKV [1] is 21.5 µM. Also, the “effect on CHIKV infection in mice” value in the data set with CHIKV [10] is listed as “ameliorate CHIKV infection in mice”.
For `CCCCCOc1ccc(-c2cc(-c3ccc(C(=O)N[C@H]4C[C@@H](O)[C@@H](O)NC(=O)[C@@H]5[C@@H](O)[C@@H](C)CN5C(=O)[C@H]([C@H](O)CC(N)=O)NC(=O)[C@H]([C@H](O)[C@@H](O)c5ccc(O)c(OS(=O)(=O)O)c5)NC(=O)[C@@H]5C[C@@H](O)CN5C(=O)[C@H]([C@@H](C)O)NC4=O)cc3)no2)cc1` [micafungin] (X1-[Orn(4R-OH,5R-OH)]T[Hyp][hTyr(3S-OH,4S-OH,3'-OSO3H)][Gln(3R-OH)][Pro(3S-OH,4S-Me)]; lactam 1-C), the EC50 in the data set on CHIKV [1] was 20.6 µM.
Turning to `CCCc1nc2c(C)cc(-c3nc4ccccc4n3C)cc2n1Cc1ccc(-c2ccccc2C(=O)O)cc1` [telmisartan], in the data set on CHIKV [1], the EC50 is 15.3 µM. Further, in the data set on CHIKV [10], the “effect on CHIKV infection in mice” value is recorded as “ameliorate CHIKV infection in mice”.
`CCCSc1ccc2nc(NC(=O)OC)[nH]c2c1` [ABZ, albendazole]: in the data set on CHIKV BRA/RJ/18 [2], the EC50 is above 50 µM and the “CHIKV BRA/RJ/18 EC50” value is given as “none exhibited anti-CHIKV activity”. In data set [3], the CC50 at 72 h is above 500 µM.
